The assay addresses T1, LXRβ (Homo sapiens, UniProt P55055).
T1 construct: Co-transfection expression plasmids, comprising full-length LXRα (pCMX-h LXRα or LXRβ (pCMX-hLXRβ)); expressed in transfected cells; host or cells: CV-1 African green monkey kidney cells, transient transfection with pCMX-hLXRβ
T1 sequence (P55055 1-460): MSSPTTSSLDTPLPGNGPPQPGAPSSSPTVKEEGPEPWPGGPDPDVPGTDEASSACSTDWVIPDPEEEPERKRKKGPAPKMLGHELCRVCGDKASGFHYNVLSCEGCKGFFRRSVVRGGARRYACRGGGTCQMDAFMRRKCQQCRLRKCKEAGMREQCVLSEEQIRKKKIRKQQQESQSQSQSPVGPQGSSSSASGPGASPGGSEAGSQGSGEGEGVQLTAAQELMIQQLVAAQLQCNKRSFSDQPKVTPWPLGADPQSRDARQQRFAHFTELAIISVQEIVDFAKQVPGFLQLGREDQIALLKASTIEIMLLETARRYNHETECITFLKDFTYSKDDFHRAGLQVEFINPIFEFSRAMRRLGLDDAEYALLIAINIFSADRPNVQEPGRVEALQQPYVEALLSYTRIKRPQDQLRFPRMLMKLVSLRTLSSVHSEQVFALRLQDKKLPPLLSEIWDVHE
T1 sequence (P19793 1-462 partner): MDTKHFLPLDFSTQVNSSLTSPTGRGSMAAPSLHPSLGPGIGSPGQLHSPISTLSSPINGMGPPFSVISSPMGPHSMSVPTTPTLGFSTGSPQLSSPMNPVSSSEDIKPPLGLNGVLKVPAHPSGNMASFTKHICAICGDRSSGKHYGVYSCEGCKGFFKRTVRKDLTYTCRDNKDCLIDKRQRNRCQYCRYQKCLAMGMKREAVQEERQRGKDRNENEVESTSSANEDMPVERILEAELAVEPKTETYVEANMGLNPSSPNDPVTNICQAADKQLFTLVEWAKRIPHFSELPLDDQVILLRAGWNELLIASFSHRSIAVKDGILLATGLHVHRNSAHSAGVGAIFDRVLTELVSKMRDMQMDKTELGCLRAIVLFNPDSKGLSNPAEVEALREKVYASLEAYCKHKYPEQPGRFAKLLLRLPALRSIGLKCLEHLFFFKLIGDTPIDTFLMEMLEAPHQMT
The assay is described as follows: LXR/LXRE co-transfection assay (luciferase reporter) in CV-1 cells, LXRβ. In kind it is cell-based. As to conditions: for EC50: CV-1 cells transfected with pCMX-hLXRβ and LXREx1-Tk-Luciferase, 20 hours incubation, read-out: LXRbeta agonism EC50; for Emax: CV-1 cells, relative to maximum response of high control N-(3-((4-fluorophenyl)-(naphthalene-2-sulfonyl)amino)propyl)-2,2-dimethylpropionamide, read-out: LXRbeta % EFFICACY
The method in brief:
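Luciferase read-out after 20 h compound treatment at 37 °C of CV-1 cells carrying transfected hLXRβ plus one-copy LXRE reporter, endogenous RXR partnering. Sigmoidal fit of 10-point half-log curves (4 wells each) gave EC50; % efficacy versus maximal response of the propionamide reference agonist.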
Background: Reporter assays use an easily measured gene product as a stand-in for the process of interest.

These results are taken from patent publication US9751869B2, “LXR modulators” (BRISTOL-MYERS SQUIBB COMPANY, priority 2013, dated 2017).

The structures appear in SMILES notation.

As a reminder, the EC50 is the concentration at which the effect is half-maximal.

For `Cc1nc(-c2cc(-c3cccc(S(C)(=O)=O)c3)ccc2-n2ccc(C(F)(F)F)n2)c(-c2ccc(Cl)cc2)o1` [Example 401, 5-(4-chlorophenyl)-2-methyl-4-(3′-(methylsulfonyl)-4-(3-(trifluoromethyl)-1H-pyrazol-1-yl)biphenyl-3-yl)oxazole], the concentration giving a half-maximal response (EC50) amounted to 131 nM and the Emax is 76%.
Regarding `CS(=O)(=O)c1cc(-c2ccc(-n3ccc(C(F)(F)F)n3)c(-c3nc(C4CC4)oc3-c3ccc(OC(F)(F)F)cc3)c2)cc(F)c1CO` [Example 402, (3′-(2-cyclopropyl-5-(4-(trifluoromethoxy)phenyl)oxazol-4-yl)-3-fluoro-5-(methylsulfonyl)-4′-(3-(trifluoromethyl)-1H-pyrazol-1-yl)biphenyl-4-yl)methanol], the EC50 turned out to be 14 nM and the Emax was 67%.
Take `CS(=O)(=O)c1cccc(-c2ccc(-n3ccc(C(F)(F)F)n3)c(-c3nc(C4CC4)oc3-c3ccc(OC(F)(F)F)cc3)c2)c1` [Example 403, 2-cyclopropyl-4-(3′-(methylsulfonyl)-4-(3-(trifluoromethyl)-1H-pyrazol-1-yl)biphenyl-3-yl)-5-(4-(trifluoromethoxy)phenyl)oxazole]: the EC50 came to 82 nM and the Emax was determined as 62%.
On the same counts, the results for `Cc1nc(-c2cc(-c3cccc(C(C)(C)C(N)=O)c3)ccc2-n2nc(C(F)(F)F)cc2Cl)c(-c2ccc(OC(F)(F)F)cc2)o1` [Example 404, 2-(4′-(5-chloro-3-(trifluoromethyl)-1H-pyrazol-1-yl)-3′-(2-methyl-5-(4-(trifluoromethoxy)phenyl)oxazol-4-yl)biphenyl-3-yl)-2-methylpropanamide] are 185 nM and 67%.
Consider `Cc1nc(-c2cc(-c3cc(F)c(CO)c(S(C)(=O)=O)c3)ccc2-n2nc(C(F)(F)F)cc2Cl)c(-c2ccc(OC(F)(F)F)cc2)o1` [Example 405, (4′-(5-chloro-3-(trifluoromethyl)-1H-pyrazol-1-yl)-3-fluoro-3′-(2-methyl-5-(4-(trifluoromethoxy)phenyl)oxazol-4-yl)-5-(methylsulfonyl)biphenyl-4-yl)methanol], for which the EC50 stood at 100 nM and the Emax is 63%.
The matching figures for `Cc1nc(-c2cc(-c3cccc(S(C)(=O)=O)c3)ccc2-n2nc(C(F)(F)F)cc2Cl)c(-c2ccc(OC(F)(F)F)cc2)o1` [Example 406, 4-(4-(5-chloro-3-(trifluoromethyl)-1H-pyrazol-1-yl)-3′-(methylsulfonyl)biphenyl-3-yl)-2-methyl-5-(4-(trifluoromethoxy)phenyl)oxazole]: 143 nM and 63%.
As to `COc1ncc(-c2oc(C)nc2-c2cc(-c3cccc(S(C)(=O)=O)c3)ccc2-n2ccc(C(F)(F)F)n2)cc1F` [Example 407, 5-(5-fluoro-6-methoxypyridin-3-yl)-2-methyl-4-(3′-(methylsulfonyl)-4-(3-(trifluoromethyl)-1H-pyrazol-1-yl)biphenyl-3-yl)oxazole], the EC50 turned out to be 67 nM and the Emax is 91%.
On the same counts, the results for `COc1ncc(-c2oc(C)nc2-c2cc(-c3cc(F)c(CO)c(S(C)(=O)=O)c3)ccc2-n2ccc(C(F)(F)F)n2)cc1F` [Example 408, (3-fluoro-3′-(5-(5-fluoro-6-methoxypyridin-3-yl)-2-methyloxazol-4-yl)-5-(methylsulfonyl)-4′-(3-(trifluoromethyl)-1H-pyrazol-1-yl)biphenyl-4-yl)methanol] are 18 nM and 73%.
The matching figures for `Cc1nc(-c2cc(-c3cccc(S(C)(=O)=O)c3)ccc2-n2ccc(C(F)(F)F)n2)c(-c2cc(F)c(OC(F)F)c(F)c2)o1` [Example 409, 5-(4-(difluoromethoxy)-3,5-difluorophenyl)-2-methyl-4-(3′-(methylsulfonyl)-4-(3-(trifluoromethyl)-1H-pyrazol-1-yl)biphenyl-3-yl)oxazole]: 45 nM and 69%.
Take `Cc1nc(-c2cc(-c3cc(F)c(CO)c(S(C)(=O)=O)c3)ccc2-n2ccc(C(F)(F)F)n2)c(-c2cc(F)c(OC(F)F)c(F)c2)o1` [Example 410, (3′-(5-(4-(difluoromethoxy)-3,5-difluorophenyl)-2-methyloxazol-4-yl)-3-fluoro-5-(methylsulfonyl)-4′-(3-(trifluoromethyl)-1H-pyrazol-1-yl)biphenyl-4-yl)methanol]: the 50% effective concentration (EC50) is 20 nM and the Emax was 82%.
Consider `Cc1nc(-c2cc(-c3cc(F)c(CO)c(S(C)(=O)=O)c3)ccc2-n2nc(C(F)(F)F)cc2Cl)c(-c2ccc3c(c2)OC(F)(F)O3)o1` [Example 411, (4′-(5-chloro-3-(trifluoromethyl)-1H-pyrazol-1-yl)-3′-(5-(2,2-difluorobenzo[d][1,3]dioxol-5-yl)-2-methyloxazol-4-yl)-3-fluoro-5-(methylsulfonyl)biphenyl-4-yl)methanol], for which the concentration for a half-maximal effect (EC50) is 19 nM and the Emax was determined as 90%.
With `Cc1nc(-c2cc(-c3cccc(S(C)(=O)=O)c3)ccc2-n2nc(C(F)(F)F)cc2Cl)c(-c2ccc3c(c2)OC(F)(F)O3)o1` [Example 412, 4-(4-(5-chloro-3-(trifluoromethyl)-1H-pyrazol-1-yl)-3′-(methylsulfonyl)biphenyl-3-yl)-5-(2,2-difluorobenzo[d][1,3]dioxol-5-yl)-2-methyloxazole], the EC50 was 29 nM and the Emax amounted to 93%.
With `Cc1nc(-c2cc(-c3cc(F)c(CO)c(S(C)(=O)=O)c3)ccc2-n2ccc(C(F)(F)F)n2)c(-c2ccc(OC(F)(F)F)cc2)o1` [Example 413, (3-fluoro-3′-(2-methyl-5-(4-(trifluoromethoxy)phenyl)oxazol-4-yl)-5-(methylsulfonyl)-4′-(3-(trifluoromethyl)-1H-pyrazol-1-yl)biphenyl-4-yl)methanol], the EC50 came to 52 nM and the Emax worked out at 73%.
As for `Cc1nc(-c2cc(-c3cccc(S(C)(=O)=O)c3)ccc2-n2ccc(C(F)(F)F)n2)c(-c2ccc(OC(F)(F)F)cc2)o1` [Example 414, 2-methyl-4-(3′-(methylsulfonyl)-4-(3-(trifluoromethyl)-1H-pyrazol-1-yl)biphenyl-3-yl)-5-(4-(trifluoromethoxy)phenyl)oxazole], the EC50 was found to be 92 nM and the Emax was 80%.
Regarding `Cc1nc(-c2cc(-c3cc(F)c(CO)c(S(C)(=O)=O)c3)ccc2-n2nc(C(F)(F)F)cc2C2CC2)c(-c2ccc(OC(F)(F)F)cc2)o1` [Example 415, (4′-(5-cyclopropyl-3-(trifluoromethyl)-1H-pyrazol-1-yl)-3-fluoro-3′-(2-methyl-5-(4-(trifluoromethoxy)phenyl)oxazol-4-yl)-5-(methylsulfonyl)biphenyl-4-yl)methanol], the EC50 turned out to be 458 nM and the Emax is 37%.
On to `Cc1nc(-c2cc(-c3cccc(S(C)(=O)=O)c3)ccc2-n2ccc(C(N)=O)n2)c(-c2ccc(OC(F)(F)F)cc2)o1` [Example 416], for which the EC50 came out at 3050 nM and the Emax is 27%.
On to `Cc1nc(-c2cc(-c3cccc(S(C)(=O)=O)c3)ccc2-n2ccc(C(C)(C)O)n2)c(-c2ccc(OC(F)(F)F)cc2)o1` [Example 417, 2-(1-(3-(2-methyl-5-(4-(trifluoromethoxy)phenyl)oxazol-4-yl)-3′-(methylsulfonyl)-[1,1′-biphenyl]-4-yl)-1H-pyrazol-3-yl)propan-2-ol], for which the EC50 amounted to 1010 nM and the Emax is 16%.
As to `Cc1nc(-c2cc(-c3cccc(C4(C(N)=O)CC4)c3)ccc2-n2nc(C(F)(F)F)cc2Cl)c(-c2ccc(OC(F)(F)F)cc2)o1` [Example 418, 1-(4′-(5-chloro-3-(trifluoromethyl)-1H-pyrazol-1-yl)-3′-(2-methyl-5-(4-(trifluoromethoxy)phenyl)oxazol-4-yl)-[1,1′-biphenyl]-3-yl) cyclopropanecarboxamide], the EC50 stood at 728 nM and the Emax was determined as 74%.
As to `Cc1nc(-c2ccc3c(c2)OC(F)(F)O3)c(-c2cc(-c3cccc(S(C)(=O)=O)c3)ccc2-n2cc(Cl)c(C(F)(F)F)n2)o1` [Example 419, 5-(4-(4-chloro-3-(trifluoromethyl)-1H-pyrazol-1-yl)-3′-(methylsulfonyl)-[1,1′-biphenyl]-3-yl)-4-(2,2-difluorobenzo[d][1,3]dioxol-5-yl)-2-methyloxazole], the concentration for a half-maximal effect (EC50) stood at 4 nM and the Emax was 71%.
